{
  "source": "patent US20030045557A1",
  "about": "“Thiadiazoles and oxadiazoles and their use as phosphodiesterase-7 inhibitors” (priority 2000, published 2003)",
  "data": [
    {"target": "T1, PDE7A1 (Homo sapiens, UniProt Q13946)", "T1 construct": "made in house; host or cells: Sf21 insect cells (baculovirus expression system)", "T1 sequence (Q13946 whole entry, species assumed)": "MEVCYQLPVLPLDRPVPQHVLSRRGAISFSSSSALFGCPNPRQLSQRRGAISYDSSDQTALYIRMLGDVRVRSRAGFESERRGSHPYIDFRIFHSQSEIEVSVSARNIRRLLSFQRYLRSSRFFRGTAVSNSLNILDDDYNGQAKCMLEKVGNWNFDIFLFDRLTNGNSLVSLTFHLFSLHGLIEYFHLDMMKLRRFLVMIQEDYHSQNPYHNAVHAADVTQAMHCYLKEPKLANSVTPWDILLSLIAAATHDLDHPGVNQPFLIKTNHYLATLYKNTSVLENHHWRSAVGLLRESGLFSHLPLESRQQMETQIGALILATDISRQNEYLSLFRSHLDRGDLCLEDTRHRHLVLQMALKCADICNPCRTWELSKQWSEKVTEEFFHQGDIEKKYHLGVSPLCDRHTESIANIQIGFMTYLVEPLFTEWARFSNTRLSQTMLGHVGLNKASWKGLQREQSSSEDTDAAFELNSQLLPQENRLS", "experiment": "In vitro inhibition of phosphodiesterase 7 (enzymatic activity, cAMP substrate 50 nM)", "assay_type": "biochemical", "details": "PDE7A1 expressed in Sf 21 insect cells; cAMP 50 nM; reaction 10 minutes; read-out: IC50 (PDE7)", "procedure": "The capacity of the compounds of the invention to inhibit cyclic nucleotide phosphodiesterases was evaluated by measuring their IC50 (concentration necessary to inhibit the enzymatic activity by 50%).\nPDE3A3, PDE4D3, and PDE7A1 were cloned and expressed in insect cells Sf 21 using the baculovirus expression system. The source of PDE103 and of PDE503 were human cell lines (respectively TPH1 human monocytes and MCF7 human breast adenocarcinoma). The various types of phosphodiesterases were obtained partially purified on an anion exchange column (Mono Q) according to a method adapted from Lavan B. E., Lakey T., Houslay M.D., Biochemical Pharmacology, 1989;38(22):4123-4136.\nMeasurement of the enzymatic activity for the various types of PDE was then made according to a method adapted from Thompson W. J. et al., Advances in Cyclic Nucleotide Research, ed. G. Brooker et al. New York: Raven Press, 1979;10:69-92.\nThe substrate used was cGMP for PDE1 and PDE5 and cAMP for PDE3, PDE4, and PDE7. The substrate concentration was 0.2 μM for PDE1, PDE3, and PDE5, 0.25 μM for PDE4, and 50 nM for PDE7.\nThe enzymatic reaction was stopped after 1 hour for PDE1, PDE3, and PDE5 and 10 minutes for PDE4 and PDE7.", "units": {"IC50": "nM"}, "values": [
      {"compound": "Cn1nc(-c2ccc(S(C)(=O)=O)cc2)s/c1=N\\[C@@H]1CCCC[C@H]1O", "note": "(relative stereo) [Example I9, (1R*,2R*)-2-[5-(4-Methanesulfonyl-phenyl)-3-methyl-3H-[1,3,4]thiadiazol-2-ylideneamino-cyclohexanol]", "IC50": 280},
      {"compound": "Cn1nc(-c2ccc(-c3ccccn3)s2)s/c1=N\\C1CCCCC1", "note": "[I18,2, Cyclohexyl-[3-methyl-5-(5-pyridin-2-yl-thiophen-2-yl)-3H-[1,3,4]thiadiazol-2-ylidene]-amine]", "IC50": 320},
      {"compound": "Cn1nc(-c2ccc3cccc(O)c3n2)s/c1=N\\C1CCCCC1", "note": "[Example I24, 2-(5-Cyclohexylimino-4-methyl-4,5-dihydro-[1,3,4]thiadiazol-2-yl)-quinolin-8-ol]", "IC50": 360},
      {"compound": "Cn1nc(-c2ccncc2)s/c1=N\\C1CCCCC1", "note": "[Example I12, Cyclohexyl-(3-methyl-5-pyridin-4-yl-3H-[1,3,4]thiadiazol-2-ylidene)-amine]", "IC50": 290},
      {"compound": "Cn1nc(-c2ccc(C(N)=O)cc2)s/c1=N\\C1CCCCC1", "note": "[I37,3, 4-(5-Cyclohexylimino-4-methyl-4,5-dihydro-[1,3,4]thiadiazol-2-yl)-benzamide]", "IC50": 62},
      {"compound": "Cn1nc(-c2ccc(C#N)cc2)s/c1=N\\C1CCCCC1", "note": "[Example I14, 4-(5-Cyclohexylimino-4-methyl-4,5-dihydro-[1,3,4]thiadiazol-2-yl)-benzonitrile]", "IC50": 270},
      {"compound": "COc1ccc(-c2nn(C)/c(=N/C3CCCCC3)s2)cc1O", "note": "[Example I32, 5-(5-Cyclohexylimino-4-methyl-4,5-dihydro-[1,3,4]thiadiazol-2-yl)-2-methoxy-phenol; compound with 1,1,1-trifluoro-methanesulfonic acid]", "IC50": 230},
      {"compound": "Cn1nc(-c2ccc(Cl)cc2)s/c1=N\\[C@@H]1CCCC[C@H]1O", "note": "(relative stereo) [Example I8, (1R*,2R*)-2-[5-(4-Chloro-phenyl)-3-methyl-3H-[1,3,4]thiadiazol-2-ylideneamino]-cyclohexanol]", "IC50": 450},
      {"compound": "Cn1nc(-c2cc(Cl)cc(Cl)c2)s/c1=N\\C1CCCCC1", "note": "[I17,1, Cyclohexyl-[5-(3,5-dichloro-phenyl)-3-methyl-3H-[1,3,4]thiadiazol-2-ylidene]-amine]", "IC50": 1300},
      {"compound": "Cn1nc(-c2ccc(Cl)cc2)s/c1=N\\C1CC2CCC1C2", "note": "(centres unmarked) [Example I7, Bicyclo[2.2.1]hept-2-yl-[5-(4-chloro-phenyl)-3-methyl-3H-[1,3,4]thiadiazol-2-ylidene]-amine]", "IC50": 1050},
      {"compound": "Cn1nc(-c2ccc(O)c(O)c2)s/c1=N\\C1CCCCC1", "note": "[Example I22, 4-(5-Cyclohexylimino-4-methyl-4,5-dihydro-[1,3,4]thiadiazol-2-yl)-benzene-1,2-diol; compound with trifluoro methanesulfonic acid]", "IC50": 1000},
      {"compound": "COC(=O)c1cccc(-c2nn(C)/c(=N/C3CCCCC3)s2)c1", "note": "[Example I21, 3-(5-Cyclohexylimino-4-methyl-4,5-dihydro-[1,3,4]thiadiazol-2-yl)-benzoic acid methyl ester]", "IC50": 150},
      {"compound": "Cn1nc(-c2cnccn2)s/c1=N\\C1CCCCC1", "note": "[Example I25, Cyclohexyl-(3-methyl-5-pyrazin-2-yl-3H-[1,3,4]thiadiazol-2-ylidene)-amine]", "IC50": 470},
      {"compound": "Cn1nc(-c2cccnc2)s/c1=N\\C1CCCCC1", "note": "[Example I38, Cyclohexyl-(3-methyl-5-pyridin-3-yl-3H-[1,3,4]thiadiazol-2-ylidene)-amine]", "IC50": 340}
    ]}
  ]
}
